This is an account of results in article PMC6337588, “Multi-Target Cinnamic Acids for Oxidative Stress and Inflammation: Design, Synthesis, Biological Evaluation and Modeling Studies” (Molecules, 2018).

The nature of data set [1]: Experimental lipophilicity as RM values by reversed phase TLC (RPTLC). It is filed as physicochemical. The settings on record: methanol/water 77/23 with 0.1% acetic acid, 24 °C, average of at least 5 measurements. An excerpt: Lipophilicity is a physicochemical property correlated with the biological activity. Lipophilicity influences ligand-target binding interactions, solubility, absorption, distribution, bioavailability, metabolism and elimination (ADME) and toxicological outcomes. The lipophilicity of the novel cinnamic acids was experimentally measured as RM values using a reverse phase thin layer chromatography (RPTLC) method. This is acknowledged as a reliable, fast and convenient approach for expressing lipophilicity (Table 1). RM relates to the thermodynamic Rf value in a logarithmic form. Bate-Smith and Westall firstly determined lipophilicity as RM values in 1950 [31]. The Br-substituted derivatives 1i–7i are more lipophilic than the OH-substituted ones 1ii–7ii which can be easily explained by their structural characteristics.
Reversed phase TLC (RPTLC) was performed on silica gel plates impregnated with 55% (v/v) liquid paraffin in light petroleum ether. The mobile phase was a methanol/water mixture (77/23, v/v) containing 0.1% of acetic acid. The plates were developed in closed chromatography tanks saturated with the mobile phase at 24 °C. Spots were detected under UV light. RM values were determined from the corresponding Rf values (from five individual measurements) using the equation RM = log[(1/Rf) − 1] [17, 18, 28].

The next data set deals with T1, soybean lipoxygenase (Glycine max, UniProt P08170).
T1 construct: purchased Sigma Chemical, Co. (St. Louis)
T1 sequence (P08170 1-839): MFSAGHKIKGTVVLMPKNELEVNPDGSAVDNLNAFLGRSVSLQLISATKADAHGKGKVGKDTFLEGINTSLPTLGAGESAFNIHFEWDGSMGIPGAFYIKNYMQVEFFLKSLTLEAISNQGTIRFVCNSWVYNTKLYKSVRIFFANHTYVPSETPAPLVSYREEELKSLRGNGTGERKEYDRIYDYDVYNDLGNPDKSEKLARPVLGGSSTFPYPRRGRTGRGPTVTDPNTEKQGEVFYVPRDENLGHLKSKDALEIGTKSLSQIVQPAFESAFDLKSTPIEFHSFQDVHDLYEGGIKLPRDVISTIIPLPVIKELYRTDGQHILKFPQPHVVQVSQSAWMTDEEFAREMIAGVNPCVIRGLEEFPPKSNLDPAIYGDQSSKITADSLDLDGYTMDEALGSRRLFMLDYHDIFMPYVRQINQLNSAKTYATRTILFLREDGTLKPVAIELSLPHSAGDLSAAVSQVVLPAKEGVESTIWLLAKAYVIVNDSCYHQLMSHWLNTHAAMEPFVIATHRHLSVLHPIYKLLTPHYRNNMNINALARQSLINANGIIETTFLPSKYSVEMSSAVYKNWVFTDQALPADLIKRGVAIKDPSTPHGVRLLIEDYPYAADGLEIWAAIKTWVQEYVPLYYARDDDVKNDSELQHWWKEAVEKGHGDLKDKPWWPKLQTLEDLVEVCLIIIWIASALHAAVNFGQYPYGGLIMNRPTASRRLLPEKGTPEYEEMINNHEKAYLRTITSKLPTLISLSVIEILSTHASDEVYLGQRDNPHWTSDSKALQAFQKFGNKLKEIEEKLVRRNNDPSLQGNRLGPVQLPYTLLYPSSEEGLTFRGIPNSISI
As to the kind of experiment: Soybean lipoxygenase inhibition in vitro. It is filed as biochemical. As to conditions: sodium linoleate 0.1 mM, 234 nm, read-out: LOX IC50. Here is the method:
Many research groups have used readily obtainable soybean lipoxygenase, which is a homologue of mammalian lipoxygenase and well studied. Due to its availability and its well-characterised crystal structure, soybean LOX was selected to be used in this study.
In vitro study was evaluated as reported previously by our group. The tested compounds were incubated at room temperature with sodium linoleate (0.1 mM) and 0.2 mL of enzyme solution (1/9 × 104 w/v in saline). The method was based to the conversion of sodium linoleate to 13-hydroperoxylinoleic acid at 234 nm. […] In order to determine the IC50 values different concentrations were used.

Data set [2] can be described thus: Reducing activity of the stable radical DPPH. It is filed as biochemical. Here is the method:
The substituted acids were monitored for the antioxidant activity by the use of the stable 2,2-diphenyl-1-picrylhydrazyl radical (DPPH) at concentration 50 µM and 100 µM after 20 and 60 min (Table 1). In this assay the DPPH radical is reduced by single electron transfer from the antioxidant. Strong antioxidants are the phenoxide anions from phenolic compounds like catechol and derivatives, such as nordihydroguaretic acid (NDGA), the reference compound. The compounds presented medium reducing abilities from 29–61%, due to steric reasons; small differences were found among the compounds with time and concentration. 4-Br-substituted-3 phenyl acetic acid derivatives (Series I) are equipotent to 4-OH-substituted-3 phenyl acetic acid derivatives (Series II). No differences were observed between 4i and 5i and 4ii and 5ii.
To a solution of DPPH in absolute ethanol an equal volume of the compounds dissolved in DMSO was added. The final concentrations of the measured solutions of the novel acids were 50 and 100 µM starting from a stock solution (10 mM) in DMSO. The absorbance was recorded at 517 nm, after 20 and 60 min at room temperature (Table 1).

Data set [3] is described as follows: Competition with DMSO for hydroxyl radicals (Fe3+/ascorbic acid system). It is filed as biochemical. The settings on record: hydroxyl radical scavenging. How it is done:
Competition of the novel substituted acids with DMSO for hydroxyl radicals was measured. Hydroxyl radicals were generated using the Fe^3+/ascorbic acid system and expressed as a percentage inhibition of formaldehyde production in the presence of each compound at 100 μM (Table 2). All the synthesized derivatives strongly scavenge hydroxyl radicals at 100 μM in comparison to the reference compound Trolox.
The hydroxyl radicals generated by the Fe^3+/ascorbic acid system, were detected by the determination of formaldehyde produced from the oxidation of DMSO (Table 2). Trolox was used as reference compound [17, 18, 28].

Data set [4] can be described thus: Non enzymatic assay of superoxide radical scavenging activity (PMS/NADH/NBT). It is filed as biochemical. Here is the method:
Superoxide radical is a main cause of oxidative stress, expressing its biological toxicity by the inactivation of iron-sulfur cluster containing enzymes. The superoxide anion radical (O2^−^•) is less toxic than the hydroxyl radical, but still being one of the most known toxic reactive oxygen species (ROS). In this assay the superoxide anion radicals were generated by a non-enzymatically assay and the compounds are tested at 100 μM final concentration (Table 2). Caffeic acid (CA) has been used as a reference compound. Compound 4ii presented the highest activity, followed by compound 3ii. We succeeded to derive a quantitative-structure activity relationship model for this activity in which the topological polar surface (TPAS) of the compounds seem to govern the superoxide anion scavenging activity:% Superoxide Anion Scavenging Activity (100 µM) = 0.019 (±0.007) TPSA + 0.813 (±0.358) n = 6, r = 0.962, r^2 = 0.926, q^2 = 0.694, s = 0.122, Q = 7.885, F1,6 = 3.701, α = 0.1 clog P vs. TPSA 0.
The superoxide radicals are generated by mixing N-methylphenazonium methyl sulfate (PMS), NADH and air–oxygen and determined by the nitroblue tetrazolium method and measured at 560 nm (Table 2). Caffeic acid was used as reference compound [17, 18, 28].

The nature of data set [5]: ABTS+• decolorization assay. It is filed as biochemical. The settings on record: 1 min, 734 nm. Here is the method: No role for lipophilicity was found. Oxidation of ABTS with potassium persulfate generates directly the ABTS radical cation (ABTS^+•) with no involvement of an intermediary radical, which is then reduced upon adding electron-donating antioxidants.
In order to produce the ABTS radical cation (ABTS^+•), ABTS stock solution in water (7 mM) was mixed with potassium persulfate (2.45 mM) and left in the dark at room temperature for 12–16 h before use. Our published experimental technique was used (Table 2). The results are recorded after 1 min of the mixing solutions at 734 nm. The results were compared to the appropriate standard inhibitor Trolox.

A short description of data set [6]: Inhibition of linoleic acid peroxidation (AAPH). It is filed as biochemical. As to conditions: anti-lipid peroxidation. An excerpt: We also used water-soluble 2,2′-[…](2-amidinopropane) hydrochloride (AAPH) for the generation of free radicals. AAPH has been extensively used as a clean and controllable source of thermally produced alkylperoxyl free radicals. The peroxyl radicals produced by the action of AAPH show total similarity to cellular activities such as lipid peroxidation. […] It seems that the presence of 3,5-di-tert-butyl-group greatly enhances protection against lipid peroxidation (6i/ii and 7i/ii followed by 3ii and 5ii). The lipid peroxidation inhibitory activity seems to be concentration dependent.
2,2’-Azobis(2-amidinopropane) dihydrochloride (AAPH) was used as a free radical initiator to start the oxidation reaction. The method was based on the production of conjugated diene hydroperoxide by oxidation of linoleic acid at 234 nm expressed as an increased absorption. Trolox was used as reference compound (93%) (Table 2).

`CC(=Cc1ccccc1)C=C(C(=O)O)c1ccc(O)cc1` [Compound 5ii, 2-(4-Hydroxyphenyl)-4-methyl-5-phenylpenta-2,4-dienoic acid] yielded a melting point of 90 to 91 °C. Further, in data set [1], the “RM (±SD)” value is listed as −0.565 (0.003). On soybean lipoxygenase, the half-maximal inhibitory concentration (IC50) worked out at 81.5 µM. Besides, in data set [2], the “RA% 50 µM 20 min” value is listed as 32%, the “RA% 50 µM 60 min” value was 39%, the “RA% 100 µM 20 min” value is reported as 30% and the “RA% 100 µM 60 min” value was 41%. Moreover, in data set [3], the “HO•% 100 µM” value is 89%. In data set [4], the “O2−•% 100 µM” value came out at 8%. Further, in data set [5], the “ABTS+•% 100 µM” value was 35%. Further, in data set [6], the “AAPH% 50 µM” value amounted to 53% and the “AAPH% 100 µM” value was 93%.

`CC(C)(C)c1cc(C=C(C(=O)O)c2ccc(Br)cc2)cc(C(C)(C)C)c1O` [Compound 7i, 2-(4-Bromophenyl)-3-(3,5-di-tert-butyl-4-hydroxyphenyl)acrylic acid] displayed a melting point of 137 to 138 °C. Moreover, the “RM (±SD)” value in data set [1] is 1.151 (0.021). Also, the half-maximal inhibitory concentration (IC50) at soybean lipoxygenase was 72.5 µM. Also, in data set [2], the “RA% 50 µM 20 min” value turned out to be 34%, the “RA% 50 µM 60 min” value is on record as 35%, the “RA% 100 µM 20 min” value came to 30% and the “RA% 100 µM 60 min” value is 31%. Further, in data set [3], the “HO•% 100 µM” value was found to be 87%. In addition, the “O2−•% 100 µM” value in data set [4] amounted to 54%. In addition, the “ABTS+•% 100 µM” value in data set [5] was found to be 28%. In data set [6], the “AAPH% 50 µM” value is reported as 61% and the “AAPH% 100 µM” value came to 100%.

Regarding `CC(C)(C)c1cc(C=C(C(=O)O)c2ccc(O)cc2)cc(C(C)(C)C)c1O` [Compound 7ii, 3-(3,5-di-tert-Butyl-4-hydroxyphenyl)-2-(4-hydroxyphenyl)acrylic acid], the melting point was 139 to 140 °C. Also, the “RM (±SD)” value in data set [1] was 0.654 (0.016). Moreover, at soybean lipoxygenase, the IC50 is 57.5 µM. Besides, in data set [2], the “RA% 50 µM 20 min” value is recorded as 33%, the “RA% 50 µM 60 min” value is 35%, the “RA% 100 µM 20 min” value is reported as 33% and the “RA% 100 µM 60 min” value is recorded as 34%. The “HO•% 100 µM” value in data set [3] worked out at 72%. Also, the “O2−•% 100 µM” value in data set [4] was 69%. In addition, the “ABTS+•% 100 µM” value in data set [5] is reported as 34%. Further, in data set [6], the “AAPH% 50 µM” value is 69% and the “AAPH% 100 µM” value was found to be 100%.

The IC50 is the midpoint of a concentration-inhibition curve. By melting point is commonly meant the temperature of the solid-liquid transition.
